From the NIST ThermoML archive (doi:10.1021/je060271a)

Conditions: 283.14 K, Liquid, Vibrating tube method

CCCCCCC(=O)OCC(COC(=O)CCCCCC)(COC(=O)CCCCCC)COC(=O)CCCCCC [pentaerythritol tetraheptanoate]
Conditions	mass density [kg/m3]
11221 kPa	992.2
11244 kPa	992.2
11266 kPa	992.3
11294 kPa	992.2
11318 kPa	992.3
11342 kPa	992.2
11370 kPa	992.4
11394 kPa	992.3
11422 kPa	992.3
11446 kPa	992.3
11470 kPa	992.3
11499 kPa	992.4
11524 kPa	992.4
11548 kPa	992.4
11573 kPa	992.4
11602 kPa	992.4
11627 kPa	992.5
11657 kPa	992.5
11682 kPa	992.4
11707 kPa	992.5
11732 kPa	992.5
11762 kPa	992.5
11788 kPa	992.6
11813 kPa	992.5
11844 kPa	992.7
11870 kPa	992.6
11901 kPa	992.5
11928 kPa	992.7
11954 kPa	992.7
11981 kPa	992.5
12013 kPa	992.6
12040 kPa	992.6
12067 kPa	992.6
12099 kPa	992.8
12127 kPa	992.7
12161 kPa	992.8
12190 kPa	992.6
12219 kPa	992.7
12243 kPa	992.7
12264 kPa	992.8
12288 kPa	992.8
12308 kPa	992.8
12333 kPa	992.8
12353 kPa	992.7
12373 kPa	992.9
12398 kPa	992.9
12418 kPa	992.9
12439 kPa	993
12464 kPa	992.9
12485 kPa	993
12506 kPa	992.8
12527 kPa	992.9
12553 kPa	992.9
12574 kPa	993
12596 kPa	993
12622 kPa	992.9
12643 kPa	993.1
12665 kPa	993
12687 kPa	993
12713 kPa	993
12734 kPa	993
12760 kPa	993.1
12782 kPa	993.1
12805 kPa	993.1
12827 kPa	993
12854 kPa	993.1
12876 kPa	993.3
12899 kPa	993.1
12926 kPa	993.1
12948 kPa	993.1
12971 kPa	993.2
12999 kPa	993.2
13021 kPa	993.2
13045 kPa	993.2
13072 kPa	993.3
13096 kPa	993.2
13123 kPa	993.2
13146 kPa	993.3
13176 kPa	993.3
13201 kPa	993.2
13225 kPa	993.3
13243 kPa	993.4
13262 kPa	993.3
13278 kPa	993.3
13294 kPa	993.4
13313 kPa	993.3
13329 kPa	993.4
13348 kPa	993.4
13365 kPa	993.4
13383 kPa	993.3
13399 kPa	993.4
13418 kPa	993.5
13435 kPa	993.4
13451 kPa	993.5
13471 kPa	993.6
13488 kPa	993.4
13504 kPa	993.6
13524 kPa	993.4
13541 kPa	993.5
13558 kPa	993.5
13578 kPa	993.5
13595 kPa	993.5
13612 kPa	993.5
13632 kPa	993.5
13648 kPa	993.5
13666 kPa	993.5
13687 kPa	993.7
13704 kPa	993.7
13721 kPa	993.6
13738 kPa	993.6
13759 kPa	993.6
13776 kPa	993.6
